Measurements: patent US8906925B2, “Pyrido[4,3-B]indoles containing rigid moieties” (Medivation Technologies, Inc., priority 2008, dated 2014)
Like-named read-outs stand apart in the source and are kept apart here. Blank lines part the entries; values can stand above or below the molecule they belong to.

How the values were obtained:
[1] = molecular target: human recombinant serotonin 5-HT2A receptor (Homo sapiens, UniProt P28223); test: Aequorin functional assay, serotonin 5-HT2A (CHO-K1); assay type: cell-based; set-up: host or cells: CHO-K1 cells co-expressing mitochondrial apoaequorin and Gα16
Description: To study the functional activity of compounds of the invention on the human recombinant dopamine D2L with Aequorin, GTPγS and cAMP functional assays and on the human recombinant serotonin 5-HT2A receptor with Aequorin, CHO-K1 cell lines expressing D2L or 5-HT2A recombinant receptor, mitochondrial apoaequorin and Gα16 were used for the Aequorin assay. CHO-K1 cell line expressing the recombinant D2L receptor was used for the cAMP assay and was amplified to prepare membranes used for the GTPγS assay.
Cells were incubated at room temperature for at least 4 h with Coelenterazine h (Molecular Probes). Dose response curves with reference compounds were performed before testing the compounds of the invention. D2L reference agonist and antagonist were quinpirol (Tocris, 1061) and haloperidol (Tocris, 0931), respectively. […] For agonist testing, 50 μL of cell suspension were injected on 50 μL of test compound or reference agonist plated in a 96-well plate. The resulting emission of light was recorded using the Hamamatsu Functional Drug Screening System 6000 (FDSS 6000). Following an incubation of 15 min after the first injection, 100 μL of reference agonist at a concentration corresponding to its EC80 was injected on the 100 μL of the mixture of cell suspension and test compound, for antagonist testing. The resulting emission of light was recorded using the same luminometer as for agonist testing. To standardize the emission of recorded light (determination of the “100% signal”) across plates and across different experiments, some of the wells contained 100 μM digitonin or a saturating concentration of ATP (20 μM). Plates also contained the reference agonist at a concentration equivalent to the EC100 and EC80 obtained during the test validation.

Sprague Dawley rats [2] = test: Subchronic PCP-induced social interaction deficits; assay type: in vivo, rat
Description: Phencyclidine (PCP) administered to humans as well to experimental animals induces full-spectrum of schizophrenia symptoms, including negative symptoms and cognitive deficits. A major symptom of schizophrenia is considered to be social isolation/withdrawal as part of the cluster of negative symptoms. Subchronic treatment with PCP in rats leads to the development of clear signs of social withdrawal as measured by deficits in the interaction time with a cage intruder rat.
Male Sprague Dawley rats (˜150 g on arrival) from Harlan (Indiana) were used in this study. Upon receipt, rats were group housed in OPTI rats ventilated cages. Rats were housed in groups of 2-3/cage for the remainder of the study. During the period of acclimation, rats were examined on a regular basis, handled, and weighed to assure adequate health and suitability. Rats were maintained on a 12/12 light/dark cycle with the light on at 7:00 a.m. The room temperature was maintained between 20 and 23° C. with a relative humidity maintained between 30% and 70%. Chow and water were provided ad libitum for the duration of the study. Animals were randomly assigned across treatment groups and balanced by age. Animals were not disturbed between test days.
The following compounds were used. 1) Compound No. 88 or 90 (0.3, 1 and 3 mg/kg; p.o.) was dissolved in 3% Tween and PBS and administered 30 min prior to test; 2) PCP (2 mg/kg; s.c.) was dissolved in saline and administered twice daily for 5 days prior to test day; 3) Clozapine (2.5 mg/kg; i.p.) was dissolved in 5% PEG:5% Tween 80 in saline and administered 30 min. prior to test. All compounds were administered at a dose volume of 1 mL/kg.
For five days prior to test, rats were injected twice daily with either PCP (2 mg/kg; s.c) or saline (s.c). On day 6 and following a 30 min pretreatment with vehicle, clozapine or Compound No. 90, a pair of rats, unfamiliar to each other, receiving the same treatment were placed in a white plexiglas open field arena (24″×17″×8″) and allowed to interact with each other for 6 min. Social interactions (‘SI’) included: sniffing the other rat; grooming the other rat; climbing over or under or around the other rat; following the other rat; or exploring the ano-genital area of the other rat. Passive contact and aggressive contact were not considered a measure of social interaction. The time the rats spent interacting with each other during the 6 min test was recorded by a trained observer. The social interaction chambers were thoroughly cleaned between the different rats.
Data were analyzed by analysis of variance (ANOVA) followed by post-hoc analysis (e.g., Fischer, Dunnett) when appropriate. An effect was considered significant if p<0.05.

Sprague Dawley rats [3] = system: Sprague Dawley rats
[4] = 0.03, 0.1, 0.3, 1, 3 and 10 mg/kg p.o.
[5] = 0.03, 0.1, 0.3, 1 and 3 mg/kg p.o.
[6] = CHO-K1, read-out: 5-HT2A Antagonist % Inhibition (Aequorin)

Chain of human recombinant serotonin 5-HT2A receptor (P28223 whole entry): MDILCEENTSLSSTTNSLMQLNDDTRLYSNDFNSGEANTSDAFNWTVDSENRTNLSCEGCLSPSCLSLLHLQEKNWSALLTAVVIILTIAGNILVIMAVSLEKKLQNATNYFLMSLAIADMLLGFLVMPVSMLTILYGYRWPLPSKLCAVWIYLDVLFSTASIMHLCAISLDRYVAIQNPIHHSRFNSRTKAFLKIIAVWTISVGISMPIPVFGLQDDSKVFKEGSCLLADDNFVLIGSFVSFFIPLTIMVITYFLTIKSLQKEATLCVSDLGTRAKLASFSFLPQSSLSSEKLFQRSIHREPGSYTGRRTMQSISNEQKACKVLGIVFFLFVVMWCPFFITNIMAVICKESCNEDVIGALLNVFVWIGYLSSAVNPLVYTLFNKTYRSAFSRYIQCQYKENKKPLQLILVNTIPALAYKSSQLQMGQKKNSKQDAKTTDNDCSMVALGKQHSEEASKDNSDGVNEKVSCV

inhibition at 0.005 µM ([1]; CHO-K1, Antagonist concentration 5 nM, read-out: 5-HT2A Antagonist % Inhibition (Aequorin)): 85.4%
inhibition at […] ([1]; CHO-K1, Antagonist concentration 15 nM): 96.6%
inhibition at 0.05 µM ([1]; CHO-K1, Antagonist concentration 50 nM, read-out: 5-HT2A Antagonist % Inhibition (Aequorin)): 98.5%
inhibition at […] ([1]; CHO-K1, Antagonist concentration 150 nM): 98.7%
inhibition at 0.5 µM ([1]; CHO-K1, Antagonist concentration 500 nM, read-out: 5-HT2A Antagonist % Inhibition (Aequorin)): 98.8%
inhibition at […] ([1]; CHO-K1, Antagonist concentration 1500 nM): 98.9%
inhibition at 5 µM ([1]; CHO-K1, Antagonist concentration 5000 nM, read-out: 5-HT2A Antagonist % Inhibition (Aequorin)): 97.8%
inhibition at 15 µM ([1]; CHO-K1, Antagonist concentration 15000 nM, read-out: 5-HT2A Antagonist % Inhibition (Aequorin)): 97%
SMILES: C/C(=C\n1c2c(c3cc(Cl)ccc31)CN(C)CC2)c1ccc(F)cc1 [Compound 83, (E)-8-chloro-5-(2-(4-fluorophenyl)prop-1-enyl)-2,3,4,5-tetrahydro-2-methyl-1H-pyrido[4,3-b]indole]

SMILES: C/C(=C\n1c2c(c3cc(C)ccc31)CN(C)CC2)c1ccncc1 [Compound 88, (E)-2,3,4,5-tetrahydro-2,8-dimethyl-5-(2-(pyridin-4-yl)prop-1-enyl)-1H-pyrido[4,3-b]indole]
PCP-induced decrease of social interaction time (Sprague Dawley rats [2]; 0.3, 1 and 3 mg/kg p.o., 30 min prior to test): attenuated
memory performance (TN−TF and RI) compared to vehicle, ANOVA + Dunnett's test (Sprague Dawley rats [3]; 0.3 mg/kg p.o.): reached the threshold of statistical significance
memory performance (TN−TF and RI) compared to vehicle, ANOVA + Dunnett's test (Sprague Dawley rats [3]; 1 mg/kg p.o.): reached the threshold of statistical significance
memory performance (TN−TF and RI values) (Sprague Dawley rats [3]; [4]): improved
number of "good learners" (Δ≧5 sec.) (Sprague Dawley rats [3]; [4]): confirmed the cognitive enhancing activity
cognitive enhancing activity (delay of onset of natural forgetting) (Sprague Dawley rats [3]; single oral administration 0.03, 0.1, 0.3, 1, 3 and 10 mg/kg, 30 min before T1): displayed a cognitive enhancing activity

SMILES: C/C(=C\n1c2c(c3cc(Cl)ccc31)CN(C)CC2)c1ccncc1 [Compound 90, (E)-8-chloro-2,3,4,5-tetrahydro-2-methyl-5-(2-(pyridin-4-yl)prop-1-enyl)-1H-pyrido[4,3-b]indole]
PCP-induced decrease of social interaction (Sprague Dawley rats [2]; 1 mg/kg p.o., 30 min prior to test): fully reversed
sedation in the home cage during pretreatment time (Sprague Dawley rats [2]; 3 mg/kg p.o.): Mild sedation
deficits in social interaction time induced by chronic PCP (Sprague Dawley rats [2]; 0.3 and 3 mg/kg p.o., did not reach control levels (partial reversal)): significantly attenuated
memory performance (TN−TF and RI) compared to vehicle, ANOVA + Dunnett's test (Sprague Dawley rats [3]; 0.1 mg/kg p.o.): reached the threshold of statistical significance
memory performance (TN−TF and RI) compared to vehicle, ANOVA + Dunnett's test (Sprague Dawley rats [3]; 1 mg/kg p.o.): reached the threshold of statistical significance
memory performance (TN−TF and RI values) (Sprague Dawley rats [3]; [5]): improved
number of "good learners" (Δ≧5 sec.) (Sprague Dawley rats [3]; [5]): confirmed the cognitive enhancing activity
locomotor activity assessed during T1 and T2 (Sprague Dawley rats [3]; rat, in vivo, po, 3 mg/kg): no statistically significant effects
5-HT2A Agonist % Activation (Aequorin) ([1]; Agonist concentration 10 nM): 0.62%
5-HT2A Agonist % Activation (Aequorin) ([1]; Agonist concentration 30 nM): 0.26%
5-HT2A Agonist % Activation (Aequorin) ([1]; Agonist concentration 100 nM): 0.27%
5-HT2A Agonist % Activation (Aequorin) ([1]; Agonist concentration 300 nM): 0.18%
5-HT2A Agonist % Activation (Aequorin) ([1]; Agonist concentration 1000 nM): 0.11%
5-HT2A Agonist % Activation (Aequorin) ([1]; Agonist concentration 3000 nM): 0.04%
5-HT2A Agonist % Activation (Aequorin) ([1]; Agonist concentration 10000 nM): 0.02%
5-HT2A Agonist % Activation (Aequorin) ([1]; Agonist concentration 30000 nM): 0.49%
inhibition at 0.005 µM [1, 6]: 73%
inhibition at 0.05 µM [1, 6]: 98.5%
inhibition at 0.5 µM [1, 6]: 98.4%
inhibition at 5 µM [1, 6]: 98.5%
inhibition at 15 µM [1, 6]: 97.6%
